Results published in US20250115597A1, “TYK2 INHIBITORS AND COMPOSITIONS AND METHODS THEREOF” (LYNK PHARMACEUTICALS CO. LTD., priority 2021, published 2025).

Each molecule was assayed against T1, Ba/F3-FL-TYK2-P760L cells (Homo sapiens, UniProt P29597, P760L, cells depend on it) (assay: Anti-proliferative assay, Ba/F3-FL-TYK2-P760L cells (Cell-Titer Glo)). Details: 72 h, read-out: BaF3-FL-T2P760L IC50.
T1 construct: BaF3-FL-T2P760L (nM)
Format: cell-based
In short: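 Ba/F3 cells made IL-3-independent by TEL-fused or full-length mutant JAK-family kinases, seeded at 2000/well and dosed after 24 h with 9 three-fold dilutions topping at 20 μM. Viability after 72 h at 37 °C, 5% CO2 by Cell-Titer Glo ATP luminescence.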

T1 sequence (P29597 whole entry P760L): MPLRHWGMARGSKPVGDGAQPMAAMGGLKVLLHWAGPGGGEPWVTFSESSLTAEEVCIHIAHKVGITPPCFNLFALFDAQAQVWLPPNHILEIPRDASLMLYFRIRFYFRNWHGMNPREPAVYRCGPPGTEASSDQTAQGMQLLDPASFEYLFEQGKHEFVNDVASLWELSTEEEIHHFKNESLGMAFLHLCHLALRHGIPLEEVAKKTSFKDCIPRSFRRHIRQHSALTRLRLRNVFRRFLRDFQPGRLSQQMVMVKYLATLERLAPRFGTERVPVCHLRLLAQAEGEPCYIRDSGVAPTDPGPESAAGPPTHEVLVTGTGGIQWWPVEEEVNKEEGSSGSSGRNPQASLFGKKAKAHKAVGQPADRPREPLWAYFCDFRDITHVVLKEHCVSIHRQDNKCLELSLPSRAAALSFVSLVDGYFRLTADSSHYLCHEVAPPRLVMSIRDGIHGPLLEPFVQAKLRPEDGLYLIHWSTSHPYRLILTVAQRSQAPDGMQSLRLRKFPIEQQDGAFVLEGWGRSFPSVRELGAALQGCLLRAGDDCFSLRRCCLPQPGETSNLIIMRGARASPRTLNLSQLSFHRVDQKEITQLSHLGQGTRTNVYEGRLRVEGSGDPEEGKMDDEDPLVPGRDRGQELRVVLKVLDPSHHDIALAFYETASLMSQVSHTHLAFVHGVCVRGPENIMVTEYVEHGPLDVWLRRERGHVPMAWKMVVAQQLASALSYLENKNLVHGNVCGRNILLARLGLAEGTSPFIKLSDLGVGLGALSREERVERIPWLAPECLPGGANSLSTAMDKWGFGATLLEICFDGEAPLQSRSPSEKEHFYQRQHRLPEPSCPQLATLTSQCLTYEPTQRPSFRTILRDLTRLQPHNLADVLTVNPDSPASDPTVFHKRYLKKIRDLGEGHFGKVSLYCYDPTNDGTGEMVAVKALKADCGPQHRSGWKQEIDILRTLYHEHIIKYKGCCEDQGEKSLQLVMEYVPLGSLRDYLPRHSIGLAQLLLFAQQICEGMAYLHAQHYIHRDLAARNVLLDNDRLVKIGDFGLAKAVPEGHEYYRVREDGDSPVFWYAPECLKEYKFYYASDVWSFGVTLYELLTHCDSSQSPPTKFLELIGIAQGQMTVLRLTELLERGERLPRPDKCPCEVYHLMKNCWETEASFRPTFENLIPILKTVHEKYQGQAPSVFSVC

SMILES | GI50 [nM]
[2H]C([2H])([2H])NC(=O)c1cnc(NC(=O)C2CC2)cc1Nc1cn(C)c2ccn(-c3cnn(C)c3)c(=O)c12 [Example 120, 6-(Cyclopropanecarboxamido)-N-(methyl-d3)-4-((1-methyl-5-(1-methyl-1H-pyrazol-4-yl)-4-oxo-4,5-dihydro-1H-pyrrolo[3,2-c]pyridin-3-yl)amino)nicotinamide] | 1120
[2H]C([2H])([2H])NC(=O)c1cnc(Nc2ccc(F)cn2)cc1Nc1cn(C)c2c(F)cn(CC(F)(F)F)c(=O)c12 [Example 124, 4-((7-Fluoro-1-methyl-4-oxo-5-(2,2,2-trifluoroethyl)-4,5-dihydro-1H-pyrrolo[3,2-c]pyridin-3-yl)amino)-6-((5-fluoropyridin-2-yl)amino)-N-(methyl-d3)nicotinamide] | 34.8
[2H]C([2H])([2H])NC(=O)c1cnc(NC(=O)[C@H]2C[C@@H](C#N)C2)cc1Nc1ccc2cnn(CC)c2c1OC [Example 128A, 6-((Cis)-3-cyanocyclobutane-1-carboxamido)-4-((1-ethyl-7-methoxy-1H-indazol-6-yl)amino)-N-(methyl-d3)nicotinamide] | 736
[2H]C([2H])([2H])NC(=O)c1cnc(NC(=O)[C@H]2C[C@H](C#N)C2)cc1Nc1ccc2cnn(CC)c2c1OC [Example 128B, 6-((Trans)-3-cyanocyclobutane-1-carboxamido)-4-((1-ethyl-7-methoxy-1H-indazol-6-yl)amino)-N-(methyl-d3)nicotinamide] | 1710
[2H]C([2H])([2H])NC(=O)c1cnc(NC(=O)C2CC2)cc1Nc1ccc2cnn(CCOC)c2c1OC [Example 130, 6-(Cyclopropanecarboxamido)-4-((7-methoxy-1-(2-methoxyethyl)-1H-indazol-6-yl)amino)-N-(methyl-d3)nicotinamide] | 357
[2H]C([2H])([2H])NC(=O)c1cnc(NC(=O)C2CC2)cc1Nc1ccc2cnn(C(C)C)c2c1OC([2H])([2H])[2H] [Example 133, 6-(Cyclopropanecarboxamido)-4-((1-isopropyl-7-(methoxy-d3)-1H-indazol-6-yl)amino)-N-(methyl-d3)nicotinamide] | 394
[2H]C([2H])([2H])NC(=O)c1cnc(Nc2cnn(C)c2)nc1Nc1ccc2cnn(CC)c2c1OC([2H])([2H])[2H] [Example 136, 4-((1-Ethyl-7-(methoxy-d3)-1H-indazol-6-yl)amino)-N-(methyl-d3)-2-((1-methyl-1H-pyrazol-4-yl)amino)pyrimidine-5-carboxamide] | 326
[2H]C([2H])([2H])NC(=O)c1cnc(Nc2ccn(C3CC3)n2)cc1Nc1ccc2cnn(CC)c2c1OC [Example 138, 6-((1-Cyclopropyl-1H-pyrazol-3-yl)amino)-4-((1-ethyl-7-methoxy-1H-indazol-6-yl)amino)-N-(methyl-d3)nicotinamide] | 88.8
[2H]C([2H])([2H])NC(=O)c1cnc(NC(=O)C2CC2)cc1Nc1ccc2cnn(C([2H])([2H])[2H])c2c1OC [Example 140, 6-(Cyclopropanecarboxamido)-4-((7-methoxy-1-(methyl-d3)-1H-indazol-6-yl)amino)-N-(methyl-d3)nicotinamide] | 82.4
[2H]C([2H])([2H])NC(=O)c1cnc(NC(=O)C2CC2)cc1Nc1cc(F)c2cnn(C([2H])([2H])C([2H])([2H])[2H])c2c1OC [Example 142, 6-(Cyclopropanecarboxamido)-4-((1-(ethyl-d5)-4-fluoro-7-methoxy-1H-indazol-6-yl)amino)-N-(methyl-d3)nicotinamide] | 169
[2H]C([2H])([2H])NC(=O)c1cnc(NC(=O)C2CC2)cc1Nc1ccc2cnn(C3CC3)c2c1OC [Example 143, 6-(Cyclopropanecarboxamido)-4-((1-cyclopropyl-7-methoxy-1H-indazol-6-yl)amino)-N-(methyl-d3)nicotinamide] | 108
[2H]C([2H])([2H])NC(=O)c1cnc(NC(=O)C2CC2)cc1Nc1ccc2cnn(C3CC3)c2c1OC([2H])([2H])[2H] [Example 145, 6-(Cyclopropanecarboxamido)-4-((1-cyclopropyl-7-(methoxy-d3)-1H-indazol-6-yl)amino)-N-(methyl-d3)nicotinamide] | 83.6
CNC(=O)c1cnc(NC(=O)C2CC2)cc1Nc1cc(Br)c2nn3c(c2c1OC)CCC3 [Example 155, 4-((6-Bromo-9-methoxy-2,3-dihydro-1H-pyrrolo[1,2-b]indazol-8-yl)amino)-6-(cyclopropanecarboxamido)-N-methylnicotinamide] | 902
[2H]C([2H])([2H])NC(=O)c1cnc(Nc2ccc(F)cn2)cc1Nc1cn(C)c2c(Cl)cn(CC)c(=O)c12 [Example 160, 4-((7-Chloro-5-ethyl-1-methyl-4-oxo-4,5-dihydro-1H-pyrrolo[3,2-c]pyridin-3-yl)amino)-6-((5-fluoropyridin-2-yl)amino)-N-(methyl-d3)nicotinamide] | 29.7
[2H]C([2H])([2H])NC(=O)c1cnc(Nc2cc(F)ccn2)cc1Nc1cn(C)c2c(Cl)cn(CC)c(=O)c12 [Example 162, 4-((7-Chloro-5-ethyl-1-methyl-4-oxo-4,5-dihydro-1H-pyrrolo[3,2-c]pyridin-3-yl)amino)-6-((4-fluoropyridin-2-yl)amino)-N-(methyl-d3)nicotinamide] | 25.9
[2H]C([2H])([2H])NC(=O)c1cnc(NC(=O)C2CC2)cc1Nc1csc2c(F)cn(C)c(=O)c12 [Example 177, 6-(Cyclopropanecarboxamido)-4-((7-fluoro-5-methyl-4-oxo-4,5-dihydrothieno[3,2-c]pyridin-3-yl)amino)-N-(methyl-d3)nicotinamide] | 91
CCn1ncc2scc(Nc3cc(NC(=O)C4CC4)ncc3C(=O)OC)c2c1=O [Example 178, Methyl 6-(cyclopropanecarboxamido)-4-((5-ethyl-4-oxo-4,5-dihydrothieno[2,3-d]pyridazin-3-yl)amino)nicotinate] | 287

Second part, the molecule after the results:

GI50 [nM] | SMILES
34.7 | [2H]C([2H])([2H])NC(=O)c1cnc(Nc2ccc(F)cn2)cc1Nc1cn(C)c2c(F)cn(C)c(=O)c12 [Example 122, 4-((7-Fluoro-1,5-dimethyl-4-oxo-4,5-dihydro-1H-pyrrolo[3,2-c]pyridin-3-yl)amino)-6-((5-fluoropyridin-2-yl)amino)-N-(methyl-d3)nicotinamide]
522 | [2H]C([2H])([2H])NC(=O)c1cnc(NC(=O)C2CC2)cc1Nc1ccc2cnn(C(C)C)c2c1OC [Example 126, 6-(Cyclopropanecarboxamido)-4-((1-isopropyl-7-methoxy-1H-indazol-6-yl)amino)-N-(methyl-d3)nicotinamide]
378 | [2H]C([2H])([2H])NC(=O)c1cnc(NC(=O)C2CC2)cc1Nc1ccc2cnn(C3CCOCC3)c2c1OC [Example 127, 6-(Cyclopropanecarboxamido)-4-((7-methoxy-1-(tetrahydro-2H-pyran-4-yl)-1H-indazol-6-yl)amino)-N-(methyl-d3)nicotinamide]
832 | [2H]C([2H])([2H])NC(=O)c1cnc(Nc2ccn(C3CC3)n2)nc1Nc1cccc(-c2ncn(C)n2)c1OC [Example 146, 2-((1-Cyclopropyl-1H-pyrazol-3-yl)amino)-4-((2-methoxy-3-(1-methyl-1H-1,2,4-triazol-3-yl)phenyl)amino)-N-(methyl-d3)pyrimidine-5-carboxamide]
2900 | CNC(=O)c1cnc(NC(=O)C2CC2)cc1Nc1ccc2nn3c(c2c1OC)CCC3 [Example 156, 6-(Cyclopropanecarboxamido)-4-((9-methoxy-2,3-dihydro-1H-pyrrolo[1,2-b]indazol-8-yl)amino)-N-methylnicotinamide]
28.3 | [2H]C([2H])([2H])NC(=O)c1cnc(Nc2ccc(F)cn2)cc1Nc1cn(C)c2c(Cl)cn(C)c(=O)c12 [Example 159, 4-((7-Chloro-1,5-dimethyl-4-oxo-4,5-dihydro-1H-pyrrolo[3,2-c]pyridin-3-yl)amino)-6-((5-fluoropyridin-2-yl)amino)-N-(methyl-d3)nicotinamide]
349 | [2H]C([2H])([2H])NC(=O)c1cnc(NC(=O)C2CC2)cc1Nc1ccc2nnn(CC)c2c1OC [Example 164, 6-(Cyclopropanecarbonylamino)-4-[(3-ethyl-4-methoxy-benzotriazol-5-yl)amino]-N-(trideuteriomethyl)pyridine-3-carboxamide]
27.6 | [2H]C([2H])([2H])NC(=O)c1cnc(Nc2ccc(F)cn2)cc1Nc1cn(C)c2c(Cl)cn(C([2H])([2H])[2H])c(=O)c12 [Example 170, 4-((7-Chloro-1-methyl-5-(methyl-d3)-4-oxo-4,5-dihydro-1H-pyrrolo[3,2-c]pyridin-3-yl)amino)-6-((5-fluoropyridin-2-yl)amino)-N-(methyl-d3)nicotinamide]
124 | [2H]C([2H])([2H])NC(=O)c1cnc(NC(=O)C2CC2)cc1Nc1csc2c(Cl)cn(C(C)C)c(=O)c12 [Example 175, 4-((7-Chloro-5-isopropyl-4-oxo-4,5-dihydrothieno[3,2-c]pyridin-3-yl)amino)-6-(cyclopropanecarboxamido)-N-(methyl-d3)nicotinamide]
183 | [2H]C([2H])([2H])NC(=O)c1cnc(NC(=O)C2CC2)cc1Nc1csc2c(Cl)cn(CC(F)(F)F)c(=O)c12 [Example 176, 4-((7-Chloro-4-oxo-5-(2,2,2-trifluoroethyl)-4,5-dihydrothieno[3,2-c]pyridin-3-yl)amino)-6-(cyclopropanecarboxamido)-N-(methyl-d3)nicotinamide]
> 5000 | [2H]C([2H])([2H])NC(=O)c1cnc(NC(=O)C2CC2)cc1Nc1csc2cnn(CCOC)c(=O)c12 [Example 179, 6-(Cyclopropanecarboxamido)-4-((5-(2-methoxyethyl)-4-oxo-4,5-dihydrothieno[2,3-d]pyridazin-3-yl)amino)-N-(methyl-d3)nicotinamide]
1350 | [2H]C([2H])([2H])NC(=O)c1cnc(NC(=O)C2CC2)cc1Nc1csc2cnn(C(C)CC)c(=O)c12 (centres unmarked) [Example 180, 4-((5-(Sec-butyl)-4-oxo-4,5-dihydrothieno[2,3-d]pyridazin-3-yl)amino)-6-(cyclopropanecarboxamido)-N-(methyl-d3)nicotinamide]
